{"source": "patent US20030134859A1", "about": "(SANKYO COMPANY, LIMITED, priority 2000, published 2003)", "system": "TNF-α production", "test": "Inhibitory activity against cytokine (TNF-α) production in LPS-stimulated RAW264.7 cells", "assay_type": "cell-based, mouse", "conditions": "1 μM test compound, LPS 10 ng/mL; for inhibition at 1 µM: Mus musculus", "outline": "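Mouse RAW264.7 macrophages (5,000 cells/well) stimulated with 10 ng/mL LPS (final) and treated with test compound at 1 μM final for 15 h at 37 °C. Supernatant mouse TNF-α measured by ELISA; % inhibition = 100−(A−B)/(C−B)×100, using unstimulated and LPS-only controls.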", "data": [{"compound": "O=C(Nc1nc(-c2ccc([N+](=O)[O-])cc2)cs1)c1cc([N+](=O)[O-])ccc1Cl", "note": "[Example 246, N-[4-(4-Nitrophenyl)thiazol-2-yl]-(2-chloro-5-nitrophenyl)carboxamide]", "values": [{"measurement": "inhibition at 1 µM", "setting": "15 hr", "value": 18, "unit": "%"}]}, {"compound": "CCOC(=O)NC(=S)Nc1ccc(-c2ccc(NC(=O)c3cc([N+](=O)[O-])ccc3Cl)cc2)cc1", "note": "[Example 251, N-[4-[4-(Ethoxycarbonylaminothiocarbonylamino)phenyl]phenyl]-(2-chloro-5-nitrophenyl)carboxamide]", "values": [{"measurement": "inhibition at 1 µM", "setting": "RAW264.7, 15 h", "value": 29, "unit": "%"}]}, {"compound": "O=C(Nc1ccc(-c2ccc(NC(=S)Nc3ccccc3)cc2)cc1)c1cc([N+](=O)[O-])ccc1Cl", "note": "[Example 252, N-[4-[4-(Phenylaminothiocarbonylamino)phenyl]phenyl]-(2-chloro-5-nitrophenyl)carboxamide]", "values": [{"measurement": "inhibition at 1 µM", "setting": "RAW264.7, 15 h", "value": 19.3, "unit": "%"}]}, {"compound": "O=C(Nc1ccc(-c2ccc(NC(=O)c3cc([N+](=O)[O-])ccc3Cl)cc2)cc1)Nc1ccccc1[N+](=O)[O-]", "note": "[Example 254, N-[4-[4-(2-Nitrophenylaminocarbonylamino)phenyl]phenyl]-(2-chloro-5-nitrophenyl)carboxamide]", "values": [{"measurement": "inhibition at 1 µM", "setting": "15 hr", "value": 44.3, "unit": "%"}]}, {"compound": "O=C(NC(=S)NCCc1ccc(NC(=O)c2cc([N+](=O)[O-])ccc2Cl)cc1)c1ccccc1", "note": "[Example 271, N-[4-(2-Phenylcarbonylaminothiocarbonylaminoethyl)phenyl]-(2-chloro-5-nitrophenyl)carboxamide]", "values": [{"measurement": "inhibition at 1 µM", "setting": "RAW264.7, 15 h", "value": 25.2, "unit": "%"}]}, {"compound": "CCS(=O)(=O)N(c1ccc(-c2ccc(NC(=O)c3cc([N+](=O)[O-])ccc3Cl)cc2)cc1)S(=O)(=O)CC", "note": "[Example 276, N-[4-[4-(N,N-Diethanesulfonylamino)phenyl]phenyl]-(2-chloro-5-nitrophenyl)carboxamide]", "values": [{"measurement": "inhibition at 1 µM", "setting": "RAW264.7, 15 h", "value": 28.5, "unit": "%"}]}, {"compound": "N-[4-(Benzenesulfonylaminophenyl)phenyl]-(2-chloro-5-nitrophenyl)carboxamide [Example 128]", "values": [{"measurement": "Inhibitory Activity (%) against TNF-α production", "setting": "15 hr", "value": 28.8, "unit": "%"}]}]}
